Source: patent publication US11124845B2, “PSMA-based molecular-genetic reporter system” (THE JOHNS HOPKINS UNIVERSITY, priority 2014, dated 2021)

Legend:
hNIS = target: T1, hNIS (Homo sapiens, UniProt Q92911); experiment: Dynamic PET in matrigel suspension model, hNIS reporter; type: in vivo; details: nude mice
T1 construct: expressed in transfected cells; host or cells: PC3-CAR cells infected in vitro with Ad-Track-hNIS (pAd-Track-CMV-NIS), implanted in matrigel into nude mice
T1 sequence (Q92911 1-643): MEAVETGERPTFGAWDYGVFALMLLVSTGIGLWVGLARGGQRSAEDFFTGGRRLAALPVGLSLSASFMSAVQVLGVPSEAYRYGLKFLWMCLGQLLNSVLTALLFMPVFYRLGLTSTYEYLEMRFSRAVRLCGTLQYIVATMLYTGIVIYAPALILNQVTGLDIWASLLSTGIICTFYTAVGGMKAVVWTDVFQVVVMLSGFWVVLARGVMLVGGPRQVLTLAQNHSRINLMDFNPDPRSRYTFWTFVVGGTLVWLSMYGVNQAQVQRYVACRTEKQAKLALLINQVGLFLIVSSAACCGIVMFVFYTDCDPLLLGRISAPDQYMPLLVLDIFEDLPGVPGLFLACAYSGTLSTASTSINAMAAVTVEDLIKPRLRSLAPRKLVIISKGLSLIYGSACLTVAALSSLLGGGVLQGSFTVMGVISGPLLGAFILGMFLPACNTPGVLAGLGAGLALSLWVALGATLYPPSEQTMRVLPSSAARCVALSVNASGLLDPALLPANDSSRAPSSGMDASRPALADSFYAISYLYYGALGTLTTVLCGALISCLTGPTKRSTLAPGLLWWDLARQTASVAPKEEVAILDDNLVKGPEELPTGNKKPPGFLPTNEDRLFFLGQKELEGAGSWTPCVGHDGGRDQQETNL
Protocol: (§1) Studies were performed according to protocols approved by the Animal Care and Use Committee at Johns Hopkins University. A matrigel suspension model was developed to enable imaging of similar numbers of cells in vivo. Four- to six-week-old athymic male nude mice (Harlan Laboratories Inc., Frederick, Md.) were used for all experiments. 4×10^6 infected cells were injected subcutaneously in the presence of Matrigel (BD Biosciences, Bedford, Mass.) at a 2:1 (cell:matrigel) ratio.
(§2) PET was performed for in vivo reporter comparison. […] [^124I]NaI was kindly provided by Dr. Jason Lewis (Memorial Sloan-Kettering Cancer Center, NY). Athymic nude mice contralaterally implanted with reporter or control expressing matrigel suspensions in the upper flanks were used for imaging. […] Mice were then placed in the prone position on the gantry of a GE eXplore VISTA small animal PET scanner (GE Healthcare Life Sciences, Pittsburgh, Pa.) and injected intravenously with ˜7.4 MBq (200 μCi) in 200 μL of PBS of each respective radiotracer. Images were acquired as a dynamic scan of 18 five-minute frames at 250 to 700 keV for ^18F and 400-700 keV for ^124I. Images were reconstructed using the FORE/2D-OSEM method (1 iteration, 16 subsets) and included correction for radioactive decay, scanner dead time, and scattered radiation. After PET imaging, the mobile mouse holder was placed on the gantry of an X-SPECT (Gamma Medica-Ideas, Salem, N.H.) small animal imaging device to acquire the corresponding CT. PET and CT data were co-registered using AMIDE software (sourceforge.net).
(§3) To compare reporter-probe systems in vivo, a matrigel suspension model was developed (FIG. 2). […] The contralateral cells masses were generally within 30% as measured by GFP imaging in vivo (FIG. 3).
(§4) The next day (48 hours after implantation), animals were subjected to a dynamic PET study whereby ˜7.4 MBq (200 μCi) of each respective radiotracer was administered intravenously and cellular uptake was quantified for a duration of 90 minutes. […]

[1] = system: MDA-MB-231 cell lines transiently transfected with full-length and truncations of PSMA; experiment: In vitro radio uptake assay, cells transfected with non-viral PSMA vectors; type: cell-based; details: 24 hours after transfection, 1 μCi
Protocol: The basic expression vectors (FIG. 8A) were tested for the ability to uptake a radio-labeled PSMA-targeted molecule (^125I-YC27). […] Twenty-four hours after the transfection, cells were treated with 1 μCi of ^125I-YC27, washed twice and the uptake was measured.

HSV-sr39tk = experiment: Dynamic PET in matrigel suspension model, HSV-sr39tk reporter; type: in vivo, herpes simplex virus; details: nude mice
Protocol: as §1, §2, §3, §4

[2] = PC3-CAR cells in matrigel, PET, SUV ratio

[124I-].[Na+] [[^124I]NaI]
peak target-to-background ratio relative to control cells (hNIS; [2]): 3.13±0.20
peak target-to-background ratio relative to muscle (hNIS; [2]): 4.96±0.65
time after which signal-to-noise ratio greater than two (relative to muscle) could be detected (hNIS; dynamic PET): 20 min

O=C(O)CCC(NC(=O)NC(CCCCNC(=O)c1ccc([125I])cc1)C(=O)O)C(=O)O (stereo not shown) [^125I-YC27, 2-[3-[1-carboxy-5-(4-[^125I]iodo-benzoylamino)-pentyl]-ureido]-pentanedioic acid]
specific uptake of the substrate [1]: Only full-length and N-terminally truncated PSMA were able to specifically uptake the substrate

Nc1nc2c(ncn2CCC(CO)C[18F])c(=O)[nH]1 (stereo not shown) [FHBG, 9-(4-[^18F]Fluoro-3-[hydroxymethyl]butyl)guanine]
peak target-to-background ratio relative to control cells (HSV-sr39tk; [2]): 2.81±0.27
peak target-to-background ratio relative to muscle (HSV-sr39tk; [2]): 4.99±0.38
time after which signal-to-noise ratio greater than two (relative to muscle) could be detected (HSV-sr39tk; dynamic PET): 45 min
